The CheMixHub viscosity set
Where “and” joins values, the source holds several entries; their conditions need not be identical. Equal values may be shown once.

Test: xn = mol fraction of the nth substance listed

CC(=O)O + ClC(Cl)Cl
Details	viscosity [mPa·s]
298.15 K, 101.33 kPa, x2 = 0.0468	1.087
298.15 K, 101.33 kPa, x2 = 0.1013	0.997
298.15 K, 101.33 kPa, x2 = 0.1021	1.022
298.15 K, 101.33 kPa, x2 = 0.1487	0.954
298.15 K, 101.33 kPa, x2 = 0.203	0.925
298.15 K, 101.33 kPa, x2 = 0.2312	0.882
298.15 K, 101.33 kPa, x2 = 0.2997	0.837
298.15 K, 101.33 kPa, x2 = 0.3403	0.805
298.15 K, 101.33 kPa, x2 = 0.4207	0.759
298.15 K, 101.33 kPa, x2 = 0.4784	0.731
298.15 K, 101.33 kPa, x2 = 0.5017	0.717
298.15 K, 101.33 kPa, x2 = 0.5627	0.68
298.15 K, 101.33 kPa, x2 = 0.6215	0.657
298.15 K, 101.33 kPa, x2 = 0.7312	0.613
298.15 K, 101.33 kPa, x2 = 0.8031	0.589
298.15 K, 101.33 kPa, x2 = 0.8931	0.56
303.15 K, 101 kPa, x2 = 0.0819	0.8986
303.15 K, 101 kPa, x2 = 0.25	0.7244
303.15 K, 101 kPa, x2 = 0.7464	0.5285
313.15 K, 101 kPa, x2 = 0.0819	0.8287
313.15 K, 101 kPa, x2 = 0.25	0.6532
313.15 K, 101 kPa, x2 = 0.7464	0.484
323.15 K, 101 kPa, x2 = 0.0819	0.7516
323.15 K, 101 kPa, x2 = 0.25	0.5982
323.15 K, 101 kPa, x2 = 0.7464	0.4537

ClCCCl + ClC(Cl)Cl
303.15 K, 101.3 kPa
Details	viscosity [mPa·s]
x1 = 0.0711	0.524
x1 = 0.1645	0.5402
x1 = 0.216	0.5493
x1 = 0.3322	0.5723
x1 = 0.4444	0.5947
x1 = 0.5227	0.6115
x1 = 0.6269	0.6349
x1 = 0.7591	0.6659
x1 = 0.7901	0.6733
x1 = 0.8637	0.692
x1 = 0.935	0.7102

ClCCl + ClC(Cl)Cl
Details	viscosity [mPa·s]
303.15 K, 101.3 kPa, x1 = 0.4966	0.4521

ClCCl + ClCCCl
303.15 K, 101.3 kPa
Details	viscosity [mPa·s]
x2 = 0.0618	0.408
x2 = 0.1258	0.4242
x2 = 0.2132	0.4486
x2 = 0.3029	0.474
x2 = 0.419	0.5092
x2 = 0.5226	0.5436
x2 = 0.6033	0.5714
x2 = 0.7998	0.6445
x2 = 0.8933	0.6822
x2 = 0.9517	0.7068

CCNc1ccccc1 + Clc1ccccc1
viscosity [mPa·s], 101 kPa
Details	303.15 K	308.15 K
x1 = 0.0629	0.767	0.72
x1 = 0.1159	0.816	0.758
x1 = 0.1959	0.894	0.823
x1 = 0.2558	0.954	0.873
x1 = 0.3298	1.028	0.937
x1 = 0.3968	1.096	0.995
x1 = 0.4856	1.188	1.073
x1 = 0.5625	1.267	1.141
x1 = 0.6359	1.342	1.206
x1 = 0.7025	1.412	1.266
x1 = 0.7839	1.499	1.34
x1 = 0.8592	1.581	1.411
x1 = 0.9215	1.65	1.473

C1CCC2=[NH+]CCCN2CC1.c1c[n-]cn1 + O
Details	viscosity [mPa·s]
298.15 K, 100 kPa, x1 = 0.2994	42.65

CC(C)C[C@H](NC(=O)[C@H](C)N)C(=O)O + O
viscosity [mPa·s], 101 kPa
Details	x1 = 3.33e-05	x1 = 7.01e-05	x1 = 0.000104	x1 = 0.000146	x1 = 0.000174	x1 = 0.0002197	x1 = 0.0002561	x1 = 0.0002862	x1 = 0.0003157	x1 = 0.0003701
305.15 K	0.7759	0.7781	0.7785	0.7806	0.7826	0.7869	0.796	0.8042	0.8098	0.8149
310.15 K	0.7079	0.7086	0.7126	0.7129	0.7165	0.7198	0.7242	0.7292	0.7334	0.7359
315.15 K	0.6492	0.6505	0.6525	0.6559	0.6596	0.6605	0.6629	0.6678	0.6692	0.6709

CCC(=O)N(CC)CC + O
298.16 K, 101 kPa
Details	viscosity [mPa·s]
x2 = 0.0649	1.31
x2 = 0.1684	1.49
x2 = 0.2965	1.79
x2 = 0.4448	2.27
x2 = 0.5923	2.93
x2 = 0.7652	3.86
x2 = 0.8001	3.91
x2 = 0.8352	3.83
x2 = 0.8933	3.34
x2 = 0.9093	3.03

CCC[n+]1ccn(C)c1.N[C@@H](CO)C(=O)[O-] + O
Details	viscosity [mPa·s]
308.15 K, 100 kPa, x2 = 0.0574	996.5

CCOC(N)=O + O
viscosity [mPa·s], 101.33 kPa
Details	x1 = 0.01112	x1 = 0.02393	x1 = 0.03411	x1 = 0.0497	x1 = 0.06189	x1 = 0.07566	x1 = 0.1253
293.15 K	1.122	1.253	1.356	1.505	1.618	1.743	2.156
298.15 K	0.9919	1.102	1.191	1.314	1.409	1.513	1.86

CC[NH+](C)CC.CS(=O)(=O)[O-] + O
Details	viscosity [mPa·s]
318.15 K, 100 kPa, x1 = 0.4263	15.65

C[C@H]1COc2c(N3CCN(C)CC3)c(F)cc3c(=O)c(C(=O)O)cn1c23 + O
viscosity [mPa·s], 100 kPa
Details	293.15 K	298.15 K	303.15 K	308.15 K	313.15 K
x1 = 0.00015	1.009	0.8934	0.8026	0.7256	0.6575
x1 = 0.000344	1.016	0.889	0.8085	0.7296	0.6617
x1 = 0.000425	1.019	0.9064	0.8134	0.7336	0.6673

N=C(N)NCCC[C@H](N)C(=O)[O-].[Na+] + O
viscosity [mPa·s], 101 kPa
Details	x1 = 0.004484	x1 = 0.008927	x1 = 0.01333	x1 = 0.0177	x1 = 0.02202	x1 = 0.02631
293.15 K	1.199	1.453	1.745	2.107	2.501	2.956
303.15 K	0.963	1.149	1.361	1.615	1.907	2.248
313.15 K	0.78	0.925	1.087	1.278	1.493	1.744
323.15 K	0.645	0.759	0.881	1.033	1.201	1.384

NC(=O)CC[C@H](N)C(=O)O + O
viscosity, 101 kPa
Details	x1 = 0.00045	x1 = 0.0009	x1 = 0.001	x1 = 0.00135	x1 = 0.001798	x1 = 0.002247	x1 = 0.002695	x1 = 0.003
298.15 K	0.897 mPa·s	–	–	0.909 mPa·s	0.915 mPa·s	–	0.9269 mPa·s	0.9238 mPa·s and 0.9238 mPa·s
303.15 K	0.8032 mPa·s	–	0.812 mPa·s	0.8135 mPa·s	0.8186 mPa·s	0.8237 mPa·s	0.8288 mPa·s	0.8262 mPa·s and 0.8262 mPa·s
308.15 K	–	0.7288 mPa·s	0.7318 mPa·s and 0.7318 mPa·s	–	–	–	0.7464 mPa·s	0.7442 mPa·s
313.15 K	–	0.6613 mPa·s	–	0.6651 mPa·s	0.6689 mPa·s	0.6727 mPa·s	0.6765 mPa·s	0.6746 mPa·s
318.15 K	0.6013 mPa·s	0.6048 mPa·s	0.6071 mPa·s	0.6082 mPa·s	0.6115 mPa·s	0.6148 mPa·s	0.6181 mPa·s	0.6166 mPa·s

O=C[C@H](O)[C@@H](O)[C@@H](O)[C@H](O)CO + O
viscosity
Details	298.15 K	308.15 K
101 kPa, x1 = 0.0002	0.9056 mPa·s and 0.9056 mPa·s	–
101 kPa, x1 = 0.001	0.9592 mPa·s and 0.9592 mPa·s	–
101 kPa, x1 = 0.0018	0.9761 mPa·s and 0.9761 mPa·s	–
101 kPa, x1 = 0.002	0.9675 mPa·s and 0.9675 mPa·s	–
101 kPa, x1 = 0.003502	0.971 mPa·s	–
101 kPa, x1 = 0.00393	0.9552 mPa·s	0.814 mPa·s
101 kPa, x1 = 0.00634	1.043 mPa·s	0.8355 mPa·s
101 kPa, x1 = 0.01867	1.505 mPa·s	–
101.3 kPa, x1 = 0.02116	1.511 mPa·s	–

O=P([O-])(O)O.[K+] + O
viscosity [mPa·s], 101 kPa
Details	x1 = 0.0018	x1 = 0.0054	x1 = 0.0089	x1 = 0.012	x1 = 0.016
298.15 K	0.9211	0.9772	1.037	1.11	1.186
303.15 K	0.8252	0.8757	0.9339	0.9884	1.062
308.15 K	0.7468	0.7881	0.837	0.8844	0.9335

O=S(=O)(O)O + O
100 kPa
Details	viscosity [mPa·s]
303.15 K, x1 = 0.007147	0.8615
313.15 K, x1 = 0.0566	1.125

[Ce+3].[Cl-].[Cl-].[Cl-] + O
Details	viscosity
298.15 K, 101.33 kPa, x1 = 0.06822	12.27 mPa·s and 12.27 mPa·s

CCOC=O + O=C1CCCO1
298.15 K, 101.33 kPa
Details	viscosity [mPa·s]
x1 = 0.0501	1.571
x1 = 0.0994	1.446
x1 = 0.1504	1.333
x1 = 0.2017	1.23
x1 = 0.2492	1.143
x1 = 0.3001	1.057
x1 = 0.4017	0.895
x1 = 0.4509	0.845
x1 = 0.503	0.783
x1 = 0.5488	0.732
x1 = 0.6028	0.677
x1 = 0.7138	0.576
x1 = 0.7502	0.547
x1 = 0.7894	0.51
x1 = 0.8503	0.47
x1 = 0.9	0.439
x1 = 0.9501	0.412

O=S(=O)(O)O + O=[N+]([O-])c1ccccc1
303.15 K, 101 kPa
Details	viscosity [mPa·s]
x1 = 0.2497	3.5
x1 = 0.4023	5.75
x1 = 0.562	9.38
x1 = 0.656	12.28
x1 = 0.6792	12.94
x1 = 0.7132	13.56
x1 = 0.796	16.17
x1 = 0.8755	18.31
x1 = 0.9516	18.96
x1 = 0.9542	18.56
x1 = 0.9702	19.68
x2 = 0.0128	19.92

CCNc1ccccc1 + Oc1ccccc1
viscosity [mPa·s], 101 kPa
Details	298.15 K	313.15 K	323.15 K
x1 = 0.0794	8.63	4.35	3.14
x1 = 0.1373	8.82	4.53	3.16
x1 = 0.206	8.53	4.34	3.06
x1 = 0.2495	8.18	4.26	3.13
x1 = 0.3418	7.28	3.96	2.97
x1 = 0.4372	5.98	3.41	2.54
x1 = 0.5	5.1	2.99	2.15
x1 = 0.5381	4.77	2.78	2.1
x1 = 0.6445	3.68	2.31	1.76
x1 = 0.7005	3.27	2.06	1.62
x1 = 0.7565	2.9	1.88	1.54
x1 = 0.8744	2.22	1.55	1.24

CCOC=O + c1ccccc1
viscosity [mPa·s], 101 kPa
Details	x1 = 0.2	x1 = 0.4	x1 = 0.5	x1 = 0.8
293.15 K	0.558	0.501	0.482	0.435
303.15 K	0.491	0.446	0.43	0.391
308.15 K	0.465	0.427	0.409	0.373
